One assay deals with GABA-B (Homo sapiens, UniProt Q9UBS5). In words: Receptor profile, GABA-B. The class given is biochemical.
For another assay, the system named is GABA-C. In words: Receptor profile, GABA-C. In kind it is biochemical.

Sequence of GABA-B (Q9UBS5 15-961 limits assumed): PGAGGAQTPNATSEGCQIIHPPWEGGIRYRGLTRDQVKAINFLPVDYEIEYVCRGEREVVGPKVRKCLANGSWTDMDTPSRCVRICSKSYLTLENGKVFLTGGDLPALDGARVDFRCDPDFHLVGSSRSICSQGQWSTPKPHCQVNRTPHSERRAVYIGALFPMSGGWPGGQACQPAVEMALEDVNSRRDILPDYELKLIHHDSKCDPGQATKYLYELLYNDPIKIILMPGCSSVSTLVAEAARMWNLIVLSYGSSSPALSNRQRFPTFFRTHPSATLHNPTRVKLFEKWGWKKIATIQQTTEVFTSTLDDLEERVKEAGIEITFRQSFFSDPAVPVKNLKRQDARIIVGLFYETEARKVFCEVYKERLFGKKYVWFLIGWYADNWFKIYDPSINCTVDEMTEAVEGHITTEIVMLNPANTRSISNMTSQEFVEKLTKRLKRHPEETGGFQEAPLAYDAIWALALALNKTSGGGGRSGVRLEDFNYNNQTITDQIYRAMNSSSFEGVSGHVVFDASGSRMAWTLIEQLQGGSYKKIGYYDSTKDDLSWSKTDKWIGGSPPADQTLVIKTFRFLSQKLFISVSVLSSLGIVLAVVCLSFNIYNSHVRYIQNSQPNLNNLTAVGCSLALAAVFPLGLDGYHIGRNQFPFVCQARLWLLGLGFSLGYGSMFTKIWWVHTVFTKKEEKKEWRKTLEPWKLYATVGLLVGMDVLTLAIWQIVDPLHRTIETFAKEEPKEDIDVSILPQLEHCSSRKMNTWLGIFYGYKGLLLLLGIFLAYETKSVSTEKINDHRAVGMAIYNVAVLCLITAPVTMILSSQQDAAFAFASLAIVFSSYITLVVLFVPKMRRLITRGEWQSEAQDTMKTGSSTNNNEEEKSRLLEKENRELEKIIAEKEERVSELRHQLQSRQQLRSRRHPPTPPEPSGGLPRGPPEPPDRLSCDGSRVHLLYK
Sequence of GABA-B (O75899 42-941 partner): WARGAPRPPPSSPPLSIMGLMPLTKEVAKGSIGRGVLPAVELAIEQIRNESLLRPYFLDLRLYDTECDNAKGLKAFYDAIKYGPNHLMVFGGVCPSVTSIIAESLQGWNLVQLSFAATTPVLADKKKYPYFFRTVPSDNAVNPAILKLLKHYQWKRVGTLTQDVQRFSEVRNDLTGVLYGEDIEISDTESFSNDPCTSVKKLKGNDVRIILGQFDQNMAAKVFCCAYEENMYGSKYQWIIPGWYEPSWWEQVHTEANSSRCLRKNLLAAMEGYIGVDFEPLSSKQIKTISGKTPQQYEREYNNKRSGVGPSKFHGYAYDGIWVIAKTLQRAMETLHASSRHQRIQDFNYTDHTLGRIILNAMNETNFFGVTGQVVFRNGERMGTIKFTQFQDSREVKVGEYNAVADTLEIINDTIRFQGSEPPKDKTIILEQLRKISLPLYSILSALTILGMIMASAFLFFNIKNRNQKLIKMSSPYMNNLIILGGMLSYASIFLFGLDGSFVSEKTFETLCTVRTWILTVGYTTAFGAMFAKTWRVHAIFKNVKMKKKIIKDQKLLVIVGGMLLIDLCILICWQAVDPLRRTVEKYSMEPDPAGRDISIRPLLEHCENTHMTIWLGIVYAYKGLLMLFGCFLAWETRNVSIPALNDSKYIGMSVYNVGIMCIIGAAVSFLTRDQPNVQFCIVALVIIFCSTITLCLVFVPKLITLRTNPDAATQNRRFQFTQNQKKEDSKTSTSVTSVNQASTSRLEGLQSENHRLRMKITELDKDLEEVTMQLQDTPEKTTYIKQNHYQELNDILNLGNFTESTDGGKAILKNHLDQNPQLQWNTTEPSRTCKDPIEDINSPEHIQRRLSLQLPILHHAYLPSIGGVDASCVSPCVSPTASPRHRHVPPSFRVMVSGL

Regarding `CP(=O)(O)C1=CCNCC1` [TPMPA], at GABA-B, the “GABA-B mode of action (agonist/antagonist)” value was “agonist”. Further, the “GABA-C mode of action (agonist/antagonist)” value with GABA-C is recorded as “antagonist”.

(Values after US20060142249A1, “Ophthalmic use” (priority 2002, published 2006).)
